This is an account of results in patent US20120270929A1, “MODULATION OF TTC39 EXPRESSION TO INCREASE HDL” (ISIS Pharmaceuticals, Inc., priority 2009, published 2012).

Oligonucleotides are written 5' to 3', each unit as a sugar letter and its base; * is a phosphorothioate linkage, no mark a phosphodiester; rarer units and linkages stand in square brackets, end groups in braces. Plain capitals give the bases only. e = 2'-O-(2-methoxyethyl) (MOE); [5mC] = 5-methylcytosine; d = 2'-deoxy (DNA)

Data set [1] relates to murine TTC39C mRNA. Put plainly: Antisense inhibition of mouse TTC39C in mouse primary hepatocytes, single dose. Particulars: 8,000 nM antisense oligonucleotide, electroporation, approximately 24 hours, TTC39C mRNA by real-time PCR (RTS3266), relative to untreated control cells. The class given is cell-based. The protocol:
Antisense oligonucleotides were designed targeting a TTC39C nucleic acid and were tested for their effects on TTC39C mRNA in vitro. Cultured mouse primary hepatocytes at a density of 30,000 cells per well were transfected by electroporation with 8,000 nM antisense oligonucleotide. After a treatment period of approximately 24 hours, RNA was isolated from the cells and TTC39C mRNA levels were measured by quantitative real-time PCR. Mouse primer probe set RTS3266 (forward sequence […], designated herein as SEQ ID NO: 140; reverse sequence […], designated herein as SEQ ID NO: 141; probe sequence […], designated herein as SEQ ID NO: 142). TTC39C mRNA levels were adjusted according to total RNA content, as measured by RIBOGREEN®. Results are presented as percent inhibition of TTC39C, relative to untreated control cells.
The chimeric antisense oligonucleotides targeting TTC39C were designed as 5-10-5 MOE gapmers. The gapmers are 20 nucleotides in length, wherein the central gap segment is comprised of ten 2′-deoxynucleotides and is flanked on both sides (in the 5′ and 3′ directions) by wings comprising five nucleotides each. Each nucleotide in the 5′ wing segment and each nucleotide in the 3′ wing segment has a 2′-MOE modification. The internucleoside linkages throughout each gapmer are phosphorothioate (P═S) linkages. All cytosine residues throughout each gapmer are 5-methylcytosines. “Mouse Target start site” indicates the 5′-most nucleotide to which the gapmer is targeted in the mouse gene sequence.
Background: Quantitative PCR measures a nucleic acid by following its amplification.

In data set [2] the test system is murine TTC39C mRNA. The data set can be described thus: Dose-dependent antisense inhibition of murine TTC39C in mouse primary hepatocytes. It is filed as cell-based. The settings on record: electroporation, ~16 h; for IC50: mouse primary hepatocytes. The protocol: Thirty antisense oligonucleotides were selected from the study described in Example 8 and further tested at various doses in mouse primary hepatocytes. Cells were plated at a density of 30,000 cells per well and transfected using electroporation with 500 nM, 1,000 nM, 2,000 nM, 4,000 nM, and 8,000 nM concentrations of antisense oligonucleotide, as specified in Table 30. After a treatment period of approximately 16 hours, RNA was isolated from the cells and TTC39C mRNA levels were measured by quantitative real-time PCR. Murine primer probe set RTS3266 was used to measure mRNA levels. TTC39C mRNA levels were adjusted according to total RNA content, as measured by RIBOGREEN®. Results are presented as percent inhibition of TTC39C, relative to untreated control cells.

For orientation: % inhibition means how much of the control response was suppressed. A higher % inhibition goes with a response far below the control. As for “ISIS 474515: 5-10-5 MOE gapmer antisense oligonucleotide targeting murine TTC39C (antisense eT*e[5mC]*e[5mC]*e[5mC]*eT*dG*dA*dA*dG*d[5mC]*d[5mC]*dG*dT*dT*dG*eT*eT*eG*eA*eG)”, the “% inhibition” value in data set [1] is 96%. Besides, the “percent inhibition of TTC39C mRNA” value was 56% in data set [2] (500.0 nM); 62% in data set [2] (1000.0 nM); 79% in data set [2] (2000.0 nM); 91% in data set [2] (4000.0 nM); 94% in data set [2] (8000.0 nM).

By IC50 is commonly meant the midpoint of a concentration-inhibition curve. Regarding “ISIS 474516: 5-10-5 MOE gapmer antisense oligonucleotide targeting murine TTC39C (antisense eT*eT*eA*eG*eT*dG*dG*dA*d[5mC]*dT*dA*dT*dG*dA*dT*eT*eT*e[5mC]*eT*eG)”, in data set [1], the “% inhibition” value turned out to be 94%. Besides, the “percent inhibition of TTC39C mRNA” value in data set [2] (500.0 nM) came to 34%; in data set [2] (1000.0 nM) it was 61%; in data set [2] (2000.0 nM) it was 71%; in data set [2] (4000.0 nM), 88%; in data set [2] (8000.0 nM), 95%. In data set [2], this substance displayed a half-inhibitory concentration (IC50) of 800 nM.

“ISIS 474517: 5-10-5 MOE gapmer antisense oligonucleotide targeting murine TTC39C (antisense e[5mC]*e[5mC]*eT*e[5mC]*eG*dA*dA*dT*dG*dT*d[5mC]*dA*dT*d[5mC]*dA*eT*eG*eG*e[5mC]*eG)”: the “% inhibition” value in data set [1] is recorded as 98%. Further, the “percent inhibition of TTC39C mRNA” value is 60% in data set [2] (500.0 nM); 67% in data set [2] (1000.0 nM); 89% in data set [2] (2000.0 nM); 95% in data set [2] (4000.0 nM); 97% in data set [2] (8000.0 nM).

“ISIS 474518: 5-10-5 MOE gapmer antisense oligonucleotide targeting murine TTC39C (antisense eG*eT*eA*eG*eT*d[5mC]*dT*dT*dT*dA*dA*dG*dT*d[5mC]*dA*eT*e[5mC]*eG*e[5mC]*eA)”: the “% inhibition” value in data set [1] is on record as 96%. The “percent inhibition of TTC39C mRNA” value is listed as 61% in data set [2] (500.0 nM); 73% in data set [2] (1000.0 nM); 90% in data set [2] (2000.0 nM); 94% in data set [2] (4000.0 nM); 96% in data set [2] (8000.0 nM).

Consider “ISIS 474521: 5-10-5 MOE gapmer antisense oligonucleotide targeting murine TTC39C (antisense eG*eG*e[5mC]*eT*eT*dT*d[5mC]*d[5mC]*dT*dA*dA*dG*dG*dA*dT*e[5mC]*e[5mC]*eA*e[5mC]*e[5mC])”, for which the “% inhibition” value in data set [1] is 97%. Moreover, the “percent inhibition of TTC39C mRNA” value in data set [2] (500.0 nM) is 46%; in data set [2] (1000.0 nM), 63%; in data set [2] (2000.0 nM), 84%; in data set [2] (4000.0 nM), 92%; in data set [2] (8000.0 nM) it was 97%. Moreover, the IC50 in data set [2] was 500 nM.

Regarding “ISIS 474523: 5-10-5 MOE gapmer antisense oligonucleotide targeting murine TTC39C (antisense eG*eG*eT*e[5mC]*eA*d[5mC]*d[5mC]*d[5mC]*d[5mC]*dT*dT*d[5mC]*dG*dG*d[5mC]*e[5mC]*eA*e[5mC]*eA*eA)”, the “% inhibition” value in data set [1] was determined as 98%. The “percent inhibition of TTC39C mRNA” value in data set [2] (500.0 nM) was 72%; in data set [2] (1000.0 nM) it was 80%; in data set [2] (2000.0 nM) it was 94%; in data set [2] (4000.0 nM), 96%; in data set [2] (8000.0 nM), 97%.

As for “ISIS 474532: 5-10-5 MOE gapmer antisense oligonucleotide targeting murine TTC39C (antisense eG*eT*eT*eG*eT*dG*d[5mC]*d[5mC]*d[5mC]*d[5mC]*dA*dT*d[5mC]*d[5mC]*dA*e[5mC]*eA*eT*e[5mC]*eA)”, the “% inhibition” value in data set [1] is on record as 99%. The “percent inhibition of TTC39C mRNA” value in data set [2] (500.0 nM) amounted to 51%; in data set [2] (1000.0 nM) it was 64%; in data set [2] (2000.0 nM), 84%; in data set [2] (4000.0 nM), 94%; in data set [2] (8000.0 nM), 97%. In data set [2], the IC50 is 400 nM.

For the substance “ISIS 474535: 5-10-5 MOE gapmer antisense oligonucleotide targeting murine TTC39C (antisense eT*e[5mC]*e[5mC]*eA*e[5mC]*dT*dT*d[5mC]*dA*dT*dG*dG*d[5mC]*dA*dA*eG*e[5mC]*eT*eT*eG)”, in data set [1], the “% inhibition” value is 96%. For the same substance, the “percent inhibition of TTC39C mRNA” value in data set [2] (500.0 nM) amounted to 18%; in data set [2] (1000.0 nM) it was 35%; in data set [2] (2000.0 nM) it was 61%; in data set [2] (4000.0 nM), 83%; in data set [2] (8000.0 nM) it was 93%. In data set [2], this substance showed a half-maximal inhibitory concentration (IC50) of 1500 nM.

For the substance “ISIS 474538: 5-10-5 MOE gapmer antisense oligonucleotide targeting murine TTC39C (antisense eT*eA*eG*e[5mC]*eA*d[5mC]*dG*d[5mC]*dA*dT*dA*dT*dG*dG*d[5mC]*eG*eG*eG*eA*e[5mC])”, in data set [1], the “% inhibition” value is 96%. For the same substance, the “percent inhibition of TTC39C mRNA” value in data set [2] (500.0 nM) amounted to 51%; in data set [2] (1000.0 nM), 58%; in data set [2] (2000.0 nM), 82%; in data set [2] (4000.0 nM), 88%; in data set [2] (8000.0 nM), 92%. The substance also returned an IC50 in data set [2] of 400 nM.

Regarding “ISIS 474540: 5-10-5 MOE gapmer antisense oligonucleotide targeting murine TTC39C (antisense e[5mC]*e[5mC]*eA*e[5mC]*eT*dG*dG*dG*dA*dG*dT*dT*dT*dA*dT*e[5mC]*eA*e[5mC]*eT*eG)”, the “% inhibition” value in data set [1] is recorded as 98%. For the same substance, the “percent inhibition of TTC39C mRNA” value in data set [2] (500.0 nM) amounted to 43%; in data set [2] (1000.0 nM), 65%; in data set [2] (2000.0 nM), 81%; in data set [2] (4000.0 nM), 92%; in data set [2] (8000.0 nM), 97%. Also, the IC50 in data set [2] was determined as 500 nM.

Consider “ISIS 474543: 5-10-5 MOE gapmer antisense oligonucleotide targeting murine TTC39C (antisense e[5mC]*e[5mC]*eA*eG*eG*dT*dG*dG*d[5mC]*dT*dT*dT*dG*dG*d[5mC]*eT*eT*eG*eG*eG)”, for which, in data set [1], the “% inhibition” value is 98%. The “percent inhibition of TTC39C mRNA” value is reported as 77% in data set [2] (500.0 nM); 88% in data set [2] (1000.0 nM); 88% in data set [2] (2000.0 nM); 88% in data set [2] (4000.0 nM); 94% in data set [2] (8000.0 nM).

As for “ISIS 474589: 5-10-5 MOE gapmer antisense oligonucleotide targeting murine TTC39C (antisense eT*e[5mC]*e[5mC]*eG*eA*dA*dA*dT*d[5mC]*dG*d[5mC]*dT*d[5mC]*dA*dG*e[5mC]*e[5mC]*eT*eG*e[5mC])”, the “% inhibition” value in data set [1] is listed as 100%. Besides, the “percent inhibition of TTC39C mRNA” value in data set [2] (500.0 nM) is on record as 95%; in data set [2] (1000.0 nM) it was 96%; in data set [2] (2000.0 nM) it was 97%; in data set [2] (4000.0 nM), 99%; in data set [2] (8000.0 nM), 100%.

Take “ISIS 474592: 5-10-5 MOE gapmer antisense oligonucleotide targeting murine TTC39C (antisense eG*eA*eA*eG*e[5mC]*dA*dT*dA*dT*dT*dG*dA*dT*dG*d[5mC]*e[5mC]*eA*eG*e[5mC]*e[5mC])”: the “% inhibition” value in data set [1] came out at 93%. The “percent inhibition of TTC39C mRNA” value in data set [2] (500.0 nM) stood at 24%; in data set [2] (1000.0 nM), 45%; in data set [2] (2000.0 nM), 71%; in data set [2] (4000.0 nM), 84%; in data set [2] (8000.0 nM) it was 92%. Moreover, in data set [2], the IC50 turned out to be 1200 nM.

For the substance “ISIS 474595: 5-10-5 MOE gapmer antisense oligonucleotide targeting murine TTC39C (antisense eG*eT*e[5mC]*eA*eT*d[5mC]*dG*d[5mC]*dA*d[5mC]*dG*d[5mC]*d[5mC]*dA*dA*e[5mC]*eT*eG*e[5mC]*eA)”, the “% inhibition” value in data set [1] turned out to be 97%. The “percent inhibition of TTC39C mRNA” value is 80% in data set [2] (500.0 nM); 87% in data set [2] (1000.0 nM); 95% in data set [2] (2000.0 nM); 98% in data set [2] (4000.0 nM); 98% in data set [2] (8000.0 nM).
